Measured values from PMC3017850, “Significance of Cuscutain, a cysteine protease from Cuscuta reflexa, in host-parasite interactions” (BMC Plant Biology, 2010).
Peptide text beside a SMILES is read from it. * marks the point of attachment. pNA = O=[N+]([O-])c1ccc(N*)cc1; Cbz = O=C(OCc1ccccc1)*

System: cuscutain
Test: colorimetric release of para-nitroaniline at […] nm; Hanes-Woolf plot
Assay type: biochemical, Cuscuta reflexa
Settings: pH 7.5; 30 °C (50 mM Tris, 300 mM NaCl) or 37 °C (0.1 M Na-citrate, 20% ethanol), both printed

In the case of `N=C(N)NCCC[C@H](NC(=O)[C@H](Cc1ccccc1)NC(=O)OCc1ccccc1)C(=O)Nc1ccc([N+](=O)[O-])cc1` [Cbz-Phe-Arg-pNA] (Cbz-Phe-Arg-pNA), the Km is reported as 393 ± 20 µM.
